The target of data set [1] is T1, FAAH (Rattus norvegicus, UniProt P97612).
T1 sequence (P97612 1-579): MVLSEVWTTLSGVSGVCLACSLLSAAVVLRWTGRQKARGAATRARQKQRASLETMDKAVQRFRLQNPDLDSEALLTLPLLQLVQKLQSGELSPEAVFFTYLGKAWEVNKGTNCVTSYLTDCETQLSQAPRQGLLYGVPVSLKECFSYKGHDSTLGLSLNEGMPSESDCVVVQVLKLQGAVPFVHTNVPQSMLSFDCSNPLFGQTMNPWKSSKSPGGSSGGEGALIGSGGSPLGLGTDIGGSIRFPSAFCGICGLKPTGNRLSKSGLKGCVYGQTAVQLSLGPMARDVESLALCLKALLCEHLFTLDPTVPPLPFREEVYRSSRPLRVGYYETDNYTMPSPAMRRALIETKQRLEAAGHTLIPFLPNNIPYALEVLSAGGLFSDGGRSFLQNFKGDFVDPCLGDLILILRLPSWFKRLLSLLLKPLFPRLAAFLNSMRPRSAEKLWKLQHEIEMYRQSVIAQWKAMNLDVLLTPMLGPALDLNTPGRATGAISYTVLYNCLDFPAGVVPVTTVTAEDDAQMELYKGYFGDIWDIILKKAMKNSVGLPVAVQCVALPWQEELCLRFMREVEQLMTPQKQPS
The data set can be described thus: FAAH assay: inhibition of rat brain [3H]AEA hydrolysis. As to conditions: for FAAH inhibitory activity (in words): 0.5 μM [3H]AEA, rat brain homogenates.
Protocol: Frozen (−80 °C) brains (minus cerebella) from adult Wistar or Sprague-Dawley rats were thawed and homogenised in 20 mM HEPES, 1 mM MgCl2, pH 7.0. and thereafter centrifuged at ∼35000 × g for 20 min at 4 °C. Homogenates were washed (by centrifugation at ∼35000 × g for 20 min at 4 °C followed by resuspension in the buffer) twice and incubated at 37 °C for 15 min in order to hydrolyse all endogenous FAAH substrates. After a further centrifugation, pellets were resuspended in 50 mM Tris-HCl buffer, pH 7.4, containing 1 mM EDTA and 3 mM MgCl2, and frozen at −80 °C in aliquots until used for the assay. For the FAAH assay[34] test compounds, homogenates (usually 0.5–0.8 μg protein per assay, diluted with 10 mM Tris-HCl, 1 mM EDTA pH 7.4) and 25 μL of [^3H]AEA in 10 mM Tris- HCl, 1 mM EDTA, pH 7.4, containing 1% w/v fatty acid-free bovine serum albumin, final substrate concentration of 0.5 μM) were incubated for 10 min at 37 °C (final assay volume 200 μL). Reactions were stopped by placing the tubes on ice. Final assay concentrations of the solvents used for the compounds (ethanol or DMSO) were in the range 1–5%. Activated charcoal (80 μL + 320 μL 0.5 M HCl) was added and the samples were mixed and left at room temperature for about 30 min. Following centrifugation at 2500 rpm for 10 min, aliquots (200 μL) of the supernatants were analysed for tritium content by liquid scintillation spectroscopy with quench correction. Blank values were obtained by the use of buffer rather than homogenate.
In general, FAAH assays upon three homogenates were undertaken using separate inhibitor dilution series (from a stock solution), with 6 concentrations of inhibitor in half-log concentrations (i.e. 1, 3, 10 µM etc) ranging from 0.3–100 µM. Data were expressed as % of vehicle control and analysed using the algorithm log(inhibitor) vs. response – variable slope (four parameters) built into the GraphPad Prism computer programme for the Macintosh (GraphPad Software Inc., San Diego, CA). Two different curve fits were chosen: one where the top (uninhibited) value was set to 100 and the bottom (maximum inhibition) was set to 0, and one where the top was set to 100 and the bottom allowed to float. The best model (when the bottom value returned >0) was chosen by Akaike’s informative criteria. Since the programme uses log10 inhibitor concentrations, the IC50 values for the inhibitable fraction are derived from the corresponding − log10(IC50) (pI50) values. […] In consequence, we report both pI50 and IC50 values to indicate the SE values.
The inhibition assays were performed using 0.5 μM [^3H]AEA as substrate and rat brain homogenates as the enzyme source.

Data set [2] has as its target T1, FAAH. As to conditions: cited from earlier work.
Details of data set [3]: method as in PMID 12767601. As to conditions: cited from earlier work.

On to `CC(C)Cc1ccc(C(C)C(=O)NCc2c(Cl)cccc2Cl)cc1` (centres unmarked) [Compound 16, N-(2,6-Dichlorobenzyl)-2–(4-isobutylphenyl)propanamide], for which the melting point lay within 130 to 135 °C. Besides, the “FAAH inhibitory activity (in words)” value in data set [1] is reported as “complete loss of activity”.
In data set [1], `CC(C)Cc1ccc(C(C)C(=O)NCc2ccccc2Cl)cc1` (centres unmarked) [Compound 11, N-(2-Chlorobenzyl)-2–(4-isobutylphenyl)propanamide] came in with an IC50 of 4.1 µM. This lies in the single-digit micromolar range.
As to `Cc1cccnc1NC(=O)[C@@H](C)c1ccc(CC(C)C)cc1` [(S)-IbuAM5], the “FAAH inhibitory activity of (S)-enantiomer relative to (R)-enantiomer” value in data set [2] is listed as 10 fold.
Consider `CC(C)Cc1ccc(C(C)C(=O)N2CCN(c3ccc(Cl)c(Cl)c3)CC2)cc1` (centres unmarked) [Compound 21, 1–(4-(3,4-Dichlorophenyl)piperazin-1-yl)-2–(4-isobutylphenyl)propan-1-one], for which the “loss of FAAH inhibitory activity relative to amide 19” value in data set [1] (3,4-dichlorophenyl versus 3-chlorophenyl analogue) was 10 fold.
`CC(C)Cc1ccc(C(C)C(=O)NCc2cc(Cl)ccc2Cl)cc1` (centres unmarked) [Compound 15, N-(2,5-Dichlorobenzyl)-2–(4-isobutylphenyl)propanamide] came in with an IC50 in data set [1] of 4.4 µM.
On the same count and under the same terms, under `CC(C)Cc1ccc(C(C)C(=O)NCc2ccc(Cl)cc2Cl)cc1` (centres unmarked) [Compound 14, N-(2,4-Dichlorobenzyl)-2–(4-isobutylphenyl)propanamide] stands 21 µM.
Turning to `Cc1ccccc1N1CCN(C(=O)C(C)c2ccc(CC(C)C)cc2)CC1` (centres unmarked) [Compound 27, 2–(4-Isobutylphenyl)-1–(4-(o-tolyl)piperazin-1-yl)propan-1-one], in data set [1], the “FAAH inhibitory activity (in words)” value is “loss of activity”.
In data set [1], `CC(C)Cc1ccc(C(C)C(=O)N2CCN(c3ccc(F)cc3)CC2)cc1` (centres unmarked) [Compound 22, 1–(4-(4-Fluorophenyl)piperazin-1-yl)-2–(4-isobutylphenyl)propan-1-one] yielded a half-inhibitory concentration (IC50) of 17 µM.
As for `Cc1cccnc1NC(=O)C(C)c1ccc(CC(C)C)cc1` (centres unmarked) [Ibu-AM5], the “potency as reversible FAAH inhibitor relative to ibuprofen” value in data set [2] was “two to three orders of magnitude more potent than ibuprofen”. In data set [3], the “ulcerogenic potency relative to ibuprofen” value is recorded as “much lower ulcerogenic potency than ibuprofen”.

The melting point is the temperature, or range, at which the solid turns liquid. The term IC50 denotes the concentration that gives 50% inhibition. A low value points to higher potency.

Source of the values: publication PMC6352954, “Benzylamides and piperazinoarylamides of ibuprofen as fatty acid amide hydrolase inhibitors” (Journal of Enzyme Inhibition and Medicinal Chemistry, 2019).
